Experimental data reported in PubChem BioAssay AID1259411 (Chemical Carcinogenesis Research Information System (CCRIS), 2018).
The source made the active and inactive calls. No rule for the calls is given here.

Tested on: rodent carcinogenicity bioassays, tumor incidence
Assay: CCRIS carcinogenicity studies
In short: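 NCI-built, expert-reviewed records of carcinogenicity and related test outcomes (mutagenicity, tumor promotion/inhibition) compiled from published and report sources, historical span 1985-2011, not updated.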

Clc1cc2c(c(Cl)c1Cl)Oc1c(Cl)c(Cl)c(Cl)c(Cl)c1O2
carcinogen call (Species: RAT, Strain/Sex: SPRAGUE-DAWLEY/FEMALE (30), Route: ORAL, GAVAGE IN CORN OIL, Dose: 2.5 MG/KG BW PLUS 0.63 MG/KG 0N D 150, TOTAL DOSE 3.1 MG/KG (STUDY DURATION: LIFESPAN), Tumor Site: Type of Lesion: LIVER: CARCINOMA): active; positive
carcinogen call (Species: RAT, Strain/Sex: SPRAGUE-DAWLEY/FEMALE (30), Route: ORAL, GAVAGE IN CORN OIL, Dose: 2.5 MG/KG BW PLUS 0.63 MG/KG ON D 150, TOTAL DOSE 3.1 MG/KG (STUDY DURATION: LIFESPAN), Tumor Site: Type of Lesion: LUNG: CARCINOMA): active; positive
carcinogen call (Species: RAT, Strain/Sex: SPRAGUE-DAWLEY/FEMALE (30), Route: ORAL, GAVAGE IN CORN OIL, Dose: 2.8 MG/KG BW PLUS 0.086 MG/KG EVERY OTHER WK FOR LIFESPAN, TOTAL DOSE 4.6 MG/KG (STUDY DURATION: LIFESPAN), Tumor Site: Type of Lesion: LUNG: CARCINOMA): active; positive
carcinogen call (Species: RAT, Strain/Sex: SPRAGUE-DAWLEY/FEMALE, Route: ORAL, GAVAGE IN CORN OIL, Dose: 0, 1.0, 2.8, 3.1, 3.4, 3.8, 4.1 MG/KG BW ONCE (STUDY DURATION: LIFESPAN), Dose: 0, 1.0, 2.8, 3.1, 3.4, 3.8, 4.1 MG/KG BW ONCE (STUDY DURATION: LIFESPAN), Tumor Site: Type of Lesion: LIVER: CARCINOMA): active; positive at higher doses
carcinogen call (Species: RAT, Strain/Sex: SPRAGUE-DAWLEY/FEMALE, Route: ORAL, GAVAGE IN CORN OIL, Dose: 0, 1.0, 2.8, 3.1, 3.4, 3.8, 4.1 MG/KG BW ONCE (STUDY DURATION: LIFESPAN), Dose: 0, 1.0, 2.8, 3.1, 3.4, 3.8, 4.1 MG/KG BW ONCE (STUDY DURATION: LIFESPAN), Tumor Site: Type of Lesion: LUNG: CARCINOMA): active; positive

Oc1cc(O)c2c(c1)O[C@H](c1ccc(O)c(O)c1)[C@@H](O)C2
carcinogen call (Species: RAT, Strain/Sex: F344/FEMALE, Route: ORAL, Dose: 0, 2% IN DIET FOR 104 WK (STUDY DURATION: 104 WK), Tumor Site: Type of Lesion: GLANDULAR STOMACH: ADENOCARCINOMA): active; positive
carcinogen call (Species: RAT, Strain/Sex: F344/MALE, Route: ORAL, Dose: 0, 2% IN DIET FOR 104 WK (STUDY DURATION: 104 WK), Tumor Site: Type of Lesion: GLANDULAR STOMACH: ADENOCARCINOMA): active; positive

S=P(N1CCOCC1)(N1CC1)N1CC1
carcinogen call (Species: MOUSE, Route: INTRAPERITONEAL, Tumor Site: Type of Lesion: LUNG): active; positive

CCN(CC)C(=O)N(CC)N=O
carcinogen call (Species: HAMSTER, Strain/Sex: SYRIAN/MALE, Route: GAVAGE, Dose: 0, 45 MG/ML (0.2 ML OF A SOLUTION IN 50% ETHANOL) 1/WK FOR 25 WK (STUDY DURATION: LIFE SPAN), Tumor Site: Type of Lesion: SPLEEN: HEMANGIOSARCOMA, FORESTOMACH: SQUAMOUS CELL CARCINOMA OR PAPILLOMA): active; positive

c1ccc2c(c1)ccc1cccnc12
carcinogen call (Species: RAT, Strain/Sex: SPRAGUE-DAWLEY/FEMALE, Route: SUBCUTANEOUS, Dose: 0, 200 UMOL/KG IN DMSO INTO SUPRASCAPULAR AREA ON DAY 1 OF LIFE FOLLOWED BY 0, 100 UMOL 1/WK AT WK 2-7 THEN O, 200 UMOL/, Dose: 0, 200 UMOL/KG IN DMSO INTO SUPRASCAPULAR AREA ON DAY 1 OF LIFE FOLLOWED BY 0, 100 UMOL 1/WK AT WK 2-7 THEN O, 200 UMOL/): inactive; negative
carcinogen call (Species: RAT, Strain/Sex: SPRAGUE-DAWLEY/MALE, Route: SUBCUTANEOUS, Dose: 0, 200 UMOL/KG IN DMSO INTO SUPRASCAPULAR AREA ON DAY 1 OF LIFE FOLLOWED BY 0, 100 UMOL 1/WK AT WK 2-7 THEN O, 200 UMOL/, Dose: 0, 200 UMOL/KG IN DMSO INTO SUPRASCAPULAR AREA ON DAY 1 OF LIFE FOLLOWED BY 0, 100 UMOL 1/WK AT WK 2-7 THEN O, 200 UMOL/): inactive; negative

Cc1cc2c3c(cccc3c1)-c1ccccc1-2
carcinogen call (Species: MOUSE, Strain/Sex: CD-1/FEMALE, Route: INTRAPERITONEAL, Dose: 0, 3.46, 17.3 UMOL (TOTAL DOSE) IN DMSO ADMINISTERED ON DAYS 1,8, AND 15 OF LIFE (STUDY DURATION: 52 WK), Dose: 0, 3.46, 17.3 UMOL (TOTAL DOSE) IN DMSO ADMINISTERED ON DAYS 1,8, AND 15 OF LIFE (STUDY DURATION: 52 WK), Tumor Site: Type of Lesion: LUNG: TUMORS, LIVER: TUMORS): active; positive
carcinogen call (Species: MOUSE, Strain/Sex: CD-1/MALE, Route: INTRAPERITONEAL, Dose: 0, 3.46, 17.3 UMOL (TOTAL DOSE) IN DMSO ADMINISTERED ON DAYS 1,8, AND 15 OF LIFE (STUDY DURATION: 52 WK), Dose: 0, 3.46, 17.3 UMOL (TOTAL DOSE) IN DMSO ADMINISTERED ON DAYS 1,8, AND 15 OF LIFE (STUDY DURATION: 52 WK), Tumor Site: Type of Lesion: LUNG: TUMORS, LIVER: TUMORS): active; positive

C=CCOC(=O)c1ccccc1C(=O)OCC=C
carcinogen call (Species: MOUSE, Strain/Sex: B6C3F1/FEMALE, Route: GAVAGE, Dose: 0, 150, 300 MG/KG IN CORN OIL FOR 5 D/WK FOR 103 WK (STUDY DURATION: 103 WK), Dose: 0, 150, 300 MG/KG IN CORN OIL FOR 5 D/WK FOR 103 WK (STUDY DURATION: 103 WK), Tumor Site: Type of Lesion: FORESTOMACH: SQUAMOUS CELL PAPILLOMA): equivocal
carcinogen call (Species: MOUSE, Strain/Sex: B6C3F1/MALE, Route: GAVAGE, Dose: 0, 150, 300 MG/KG IN CORN OIL FOR 5 D/WK FOR 103 WK (STUDY DURATION: 103 WK), Dose: 0, 150, 300 MG/KG IN CORN OIL FOR 5 D/WK FOR 103 WK (STUDY DURATION: 103 WK), Tumor Site: Type of Lesion: FORESTOMACH: SQUAMOUS CELL PAPILLOMA, HEMATOPOIETIC SYSTEM: LYMPHOMA): equivocal
carcinogen call (Species: RAT, Strain/Sex: F344/FEMALE, Route: GAVAGE, Dose: 0, 50, 100 MG/KG IN CORN OIL 5 D/WK FOR 103 WK (STUDY DURATION: 105 WK), Dose: 0, 50, 100 MG/KG IN CORN OIL 5 D/WK FOR 103 WK (STUDY DURATION: 105 WK), Tumor Site: Type of Lesion: HEMATOPOIETIC SYSTEM: MONONUCLEAR CELL LEUKEMIA): equivocal
carcinogen call (Species: RAT, Strain/Sex: F344/MALE, Route: GAVAGE, Dose: 0, 50, 100 MG/KG IN CORN OIL 5 D/WK FOR 103 WK (STUDY DURATION: 105 WK), Dose: 0, 50, 100 MG/KG IN CORN OIL 5 D/WK FOR 103 WK (STUDY DURATION: 105 WK)): inactive; negative

O=c1c(-c2ccc(O)cc2)coc2cc(O)cc(O)c12
carcinogen call (Species: Rat, Strain/Sex: Sprague-Dawley/Female (50/Group), Route: Oral, Dose: During pregnancy, ingested doses for dams were ~0, 0.5, 9, and 45 mg/kg bw/day. During lactation, ingested doses for dam): inactive; negative
carcinogen call (Species: Rat, Strain/Sex: Sprague-Dawley/Female (50/Group), Route: Oral, Dose: During pregnancy, ingested doses for dams were ~0, 0.5, 9, and 45 mg/kg bw/day. During lactation, ingested doses for dam, Tumor Site: Type of Lesion: Mammary gland: adenoma and adenocarcinoma combined (13.2%, 16.3%, 22.0%, 26.0%)): inactive; negative. positive trend but results do not reach statistical significance (ntp
carcinogen call (Species: Rat, Strain/Sex: Sprague-Dawley/Female (50/Group), Route: Oral, Dose: During pregnancy, ingested doses for dams were ~0, 0.5, 9, and 45 mg/kg bw/day. During lactation, ingested doses for dam, Tumor Site: Type of Lesion: Mammary gland: adenoma and adenocarcinoma combined (16.7%, 8.0%, 16.0%, 32.7%) Pituitary gland: neoplasms (70.4%, 80.0%): inactive; positive but at 2 lower doses, there was a negative trend for the mammary tumors
carcinogen call (Species: Rat, Strain/Sex: Sprague-Dawley/Female (50/Group), Route: Oral, Dose: During pregnancy, ingested doses for dams were ~0, 0.5, 9, and 45 mg/kg bw/day. During lactation, ingested doses for dam, Tumor Site: Type of Lesion: Pituitary gland: adenoma and carcinoma combined (Overall rate 70.4%, 65.3%, 80.0%, 88.0%)): inactive; negative (ntp describes as equivocal)
carcinogen call (Species: Rat, Strain/Sex: Sprague-Dawley/Male (50/Group), Route: Oral, Dose: During pregnancy, ingested doses for dams were ~0, 0.5, 9, and 45 mg/kg bw/day. During lactation, ingested doses for dam): inactive; negative

O[C@H]1[C@@H]2O[C@@H]2C=C[C@@H]1O
carcinogen call (Species: MOUSE, Strain/Sex: SWISS/FEMALE, Route: INTRAPERITONEAL, Dose: 0, 2.7, 13.7 UMOL ADMINISTERED AS 3 UNEQUAL DOSES (1/7, 2/7, AND 4/7 OF THE TOTAL DOSE) OVER A 2-WK PERIOD (STUDY DURATI, Dose: 0, 2.7, 13.7 UMOL ADMINISTERED AS 3 UNEQUAL DOSES (1/7, 2/7, AND 4/7 OF THE TOTAL DOSE) OVER A 2-WK PERIOD (STUDY DURATI): inactive; negative
carcinogen call (Species: MOUSE, Strain/Sex: SWISS/MALE, Route: INTRAPERITONEAL, Dose: 0, 2.7, 13.7 UMOL ADMINISTERED AS 3 UNEQUAL DOSES (1/7, 2/7, AND 4/7 OF THE TOTAL DOSE) OVER A 2-WK PERIOD (STUDY DURATI, Dose: 0, 2.7, 13.7 UMOL ADMINISTERED AS 3 UNEQUAL DOSES (1/7, 2/7, AND 4/7 OF THE TOTAL DOSE) OVER A 2-WK PERIOD (STUDY DURATI): inactive; negative
